Several values for one entry are separate records, joined by “and”; a condition that tells them apart may be missing. Equal values may be shown once.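 Cultured in 96-well plates, cells were exposed to test compound for 48 hours across five concentrations. GI50 marks 50% less growth. TGI: total growth inhibition.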
Key:
Test in all cases: NCI anticancer screen, dose series, 48 h
[1] = system: NCI-H23 lung
[2] = system: SR leukemia
[3] = system: SF-295 CNS
[4] = system: HOP-92 NSCLC
[5] = system: SK-MEL-5 melanoma
[6] = system: OVCAR-4 ovarian
[7] = system: SN12C renal
[8] = system: NCI-H522 lung
[9] = system: COLO 205 colon

O=C(N/C(=C\c1cccc([N+](=O)[O-])c1)c1nc2ccc([N+](=O)[O-])cc2[nH]1)c1ccccc1
TGI [1]: > 100 µM | TGI [2]: 65.6 µM | TGI [3]: > 100 µM | TGI [4]: 60.7 µM | TGI [5]: 43.7 µM | TGI [6]: 66.1 µM | TGI [7]: > 100 µM | TGI [8]: 52.9 µM | TGI [9]: > 100 µM

COc1ccc(N2C(=O)/C(=C/c3ccc(N(CCC#N)CCC#N)cc3C)N=C2c2cc([N+](=O)[O-])ccc2Cl)cc1
TGI [1]: > 61.6 µM | TGI [2]: 35.4 µM | TGI [3]: 5.8 µM | TGI [4]: > 100 µM | TGI [5]: 51.8 µM | TGI [6]: > 46.4 µM | TGI [7]: > 56.2 µM | TGI [8]: 12.5 µM | TGI [9]: 25.6 µM

CC1CN1C(=O)NCCCCCCNC(=O)N1CC1C (centres undefined)
TGI [1]: > 100 µM | TGI [2]: 60.2 µM | TGI [3]: > 100 µM | TGI [4]: > 100 µM | TGI [5]: > 100 µM | TGI [6]: > 100 µM | TGI [7]: > 100 µM | TGI [8]: > 100 µM | TGI [9]: > 100 µM

COc1ccc2c(c1)C(=O)c1c-2n(CCCn2ccnc2)c(=O)c2cc([N+](=O)[O-])ccc12
GI50 [1]: < 0.01 µM | TGI [1]: < 0.01 µM | GI50 [2]: < 0.01 µM | GI50 [3]: < 0.01 µM | GI50 [4]: < 0.0397 µM | GI50 [5]: < 0.01 µM | TGI [5]: < 0.01 µM | TGI [6]: > 100 µM | GI50 [7]: < 0.01 µM | TGI [7]: > 100 µM | GI50 [8]: < 0.0134 µM | TGI [8]: 3.99 µM | GI50 [9]: 0.0548 µM | TGI [9]: > 42.8 µM

CC[C@@]1(c2ccccc2)C2=C(CC(C)(C)CC2=O)Nc2[nH]ncc21
GI50 [1]: > 100 µM | TGI [1]: > 100 µM | GI50 [2]: > 100 µM | TGI [2]: > 100 µM | GI50 [3]: > 100 µM | TGI [3]: > 100 µM | GI50 [4]: > 100 µM | TGI [4]: > 100 µM | GI50 [5]: > 100 µM | TGI [5]: > 100 µM | GI50 [6]: > 100 µM | TGI [6]: > 100 µM | GI50 [7]: > 100 µM | TGI [7]: > 100 µM | GI50 [8]: > 100 µM | TGI [8]: > 100 µM | GI50 [9]: > 100 µM | TGI [9]: > 100 µM

NC(=O)COC(=O)c1c(Cl)nc2sccn12
TGI [1]: > 100 µM | TGI [2]: 85.4 µM | TGI [3]: > 100 µM | TGI [4]: > 100 µM | TGI [5]: > 100 µM | TGI [6]: > 100 µM | TGI [7]: > 100 µM | TGI [8]: > 100 µM | TGI [9]: > 100 µM

O=C(O)CCNC1CCCCC1
GI50 [1]: > 100 µM | TGI [1]: > 100 µM | GI50 [2]: > 100 µM | TGI [2]: > 100 µM | GI50 [3]: > 100 µM | TGI [3]: > 100 µM | GI50 [4]: > 100 µM | TGI [4]: > 100 µM | GI50 [5]: > 100 µM | TGI [5]: > 100 µM | GI50 [6]: > 100 µM | TGI [6]: > 100 µM | GI50 [7]: > 100 µM | TGI [7]: > 100 µM | GI50 [8]: > 100 µM | TGI [8]: > 100 µM | GI50 [9]: > 100 µM | TGI [9]: > 100 µM

N#CC(C#N)=C1Nc2ccccc2S1
GI50 [1]: 22.4 µM | TGI [1]: 45.9 µM | GI50 [2]: 25.6 µM | TGI [2]: 51.9 µM | GI50 [3]: 24.3 µM | TGI [3]: 69 µM | GI50 [4]: 2.59 µM | TGI [4]: 18.1 µM | GI50 [5]: 22.7 µM | TGI [5]: 44.8 µM | GI50 [6]: 87 µM | TGI [6]: > 100 µM | GI50 [7]: 38.2 µM | TGI [7]: > 100 µM | GI50 [8]: 32.4 µM | TGI [8]: > 100 µM | GI50 [9]: 29.5 µM | TGI [9]: > 100 µM

Cc1cc2c(cc1Cl)SC1=NN(C)S(=O)N1S2(=O)=O (centres undefined)
GI50 [1]: > 100 µM | TGI [1]: > 100 µM | GI50 [2]: > 100 µM | TGI [2]: > 100 µM | GI50 [3]: > 100 µM | TGI [3]: > 100 µM | GI50 [4]: 25.5 µM | TGI [4]: 87 µM | GI50 [5]: > 100 µM | TGI [5]: > 100 µM | GI50 [6]: > 100 µM | TGI [6]: > 100 µM | GI50 [7]: > 100 µM | TGI [7]: > 100 µM | GI50 [8]: > 100 µM | TGI [8]: > 100 µM | GI50 [9]: > 100 µM | TGI [9]: > 100 µM

CC(=O)O[C@H]1C(=O)[C@@]2(C)C(C(OC(=O)c3ccccc3)[C@]3(O)CC(OC(=O)[C@H](OC(=O)CCC(=O)O)C(NC(=O)c4ccccc4)c4ccccc4)C(C)=C1C3(C)C)C1(OC(C)=O)COC1C[C@@H]2O (some centres undefined)
TGI [1]: > 100 µM | TGI [2]: < 0.01 µM and 0.0173 µM | GI50 [3]: 0.0471 µM and 0.18 µM | TGI [3]: 2.27 µM | TGI [4]: > 78.8 µM and 91.8 µM | TGI [5]: 13.9 µM and 18 µM | TGI [6]: > 100 µM | GI50 [7]: < 0.01 µM and 0.0287 µM | TGI [7]: > 100 µM | TGI [8]: < 0.01 µM | TGI [9]: < 0.0142 µM and 0.04 µM

C=C(C[C@](O)(C(=O)/C=C/c1ccc(Cl)cc1)C(=O)OC)c1ccccc1
GI50 [1]: 2.82 µM | TGI [1]: 11.9 µM | GI50 [2]: 1.59 µM | TGI [2]: 7.7 µM | GI50 [3]: 7.96 µM | TGI [3]: 20.7 µM | GI50 [4]: 4.07 µM | TGI [4]: 15.5 µM | GI50 [5]: 4.11 µM | TGI [5]: 14.6 µM | GI50 [6]: 3.07 µM | TGI [6]: 15.6 µM | GI50 [7]: 2.41 µM | TGI [7]: 6.1 µM | GI50 [8]: 2.25 µM | TGI [8]: 6.95 µM | GI50 [9]: 2 µM | TGI [9]: 4.36 µM

C#CCNC(=O)c1cccc2c1cc(C)n2-c1nc2c(c(NCc3ccccc3)n1)CCCC2
GI50 [1]: 0.0195 µM | TGI [1]: 0.0563 µM | GI50 [2]: 0.0156 µM | TGI [2]: 0.165 µM | GI50 [3]: 0.0175 µM | TGI [3]: 0.0418 µM | GI50 [4]: 0.0239 µM | TGI [4]: 0.0669 µM | GI50 [5]: 0.00886 µM | TGI [5]: 0.0235 µM | GI50 [6]: 0.022 µM | TGI [6]: 0.0709 µM | GI50 [7]: 0.0204 µM | TGI [7]: 0.0689 µM | GI50 [8]: 0.0251 µM | TGI [8]: 0.0808 µM | GI50 [9]: 0.0191 µM | TGI [9]: 0.0382 µM

Source: PubChem BioAssay (NCI)
